Measured values reported in patent US9301951B2 (Ardelyx, Inc., priority 2010, dated 2016).

Key:
[1] = human absorption; cited from earlier work
[2] = Determination of compound Cmax and AUC in plasma after oral gavage; format: in vivo, rat; details: Sprague-Dawley rats, actual oral dose 3-15 mg/kg, 0.5-4 h
Protocol: Sprague-Dawley rats were orally gavaged with test article at a nominal dose of 2.5 or 10 mg/kg and blood was collected at 0.5, 1, 2 and 4 h. Blood samples were processed to plasma using K2EDTA as an anticoaglulant. Plasma samples were treated with acetonitrile containing an internal standard, precipitated proteins removed by centrifugation. Supernatants were analyzed by LC-MS/MS and compound concentrations were determined by interpolation from a standard curve prepared in plasma. All compounds were orally dosed at the dosage shown, and pharmacokinetic parameters determined.

Compound | % FA [1] [%] | AUC [2] [ng·h/mL] | Cmax [2] [ng/mL]
Cc1cc(=O)n(-c2ccccc2)n1C [phenazone] | 97 |  | 
(S)-2-(5-(diethylamino)-2-(3-(27-oxo-2,5,8,11,14,17,20,23,30,33,36,39-dodecaoxa-42-thia-26-azatritetracontan-43-yl)benzamido)phenyl)-N-(1,2,3,4-tetrahydronaphthalen-1-yl)isonicotinamide [Example 157.1] |  | <30 | <10
